“And” between values parts separate entries of the source, which are not always exact repeats. Equal entries are not always repeated. “Also recorded” adds a separate entry of the source.
Columns and labels:
[1] = tested on: CCl4-induced liver fibrosis; test: CCl4-induced liver fibrosis in rats, fibrosis area by Picro Sirius red image analysis; assay type: in vivo, rat; conditions: for area of fibrosis (% of field area): control 0.63±0.06%
Protocol: (§1) All experiments were carried out using accepted ethical guidelines. Male Wistar rats (Charles River, St Aubin-les-Elbeuf, France) weighing 200-250 g were used in this study. The animals had free access to food and drinking water. Fibrosis was induced by giving CCl4 (Sigma, St Quentin-Fallavier, France) mixed with olive oil (1vol: 5vol.) at 0.375 ml/kg body weight by gavage, three times a week, on Monday, Wednesday and Friday. Control animals for CCl4 received only olive oil.
(§2) Sympathetic chemical denervation was performed with OHDA (Sigma). OHDA was freshly prepared in saline containing 0.4% (w/v) ascorbic acid (Sigma). OHDA was administered intraperitoneally, twice a week on 2 consecutive days (Monday and Tuesday) at the dose of 25 mg/kg body weight. The first injection was given 4 to 6 hours before the first administration of CCl4. Control animals for OHDA received only the solvent.
(§3) Thus, 4 groups including each 6 animals could be distinguished. Group I: olive oil and saline alone; group II: olive oil and OHDA alone; group III: CCl4 with saline; group IV: CCl4 with OHDA. These animals were treated for 2 weeks. In another series of experiments, animals were similarly treated for 6 weeks. In that case, both control groups included only 3 animals.
Finally, other animals were treated with the specific α1-adrenergic receptor antagonist prazosin (Sigma), given in drinking water daily at a dose of 50 mg/l during 2 weeks. Group V animals received CCl4 alone, while group VI received CCl4 with prazosin. Both groups included 6 animals.
At the designated time points, the animals were sacrificed. Liver samples were taken from several lobes and either snap frozen in liquid nitrogen, cryopreserved in OCT compound (Sakura, Torrance, Calif.) and snap-frozen in liquid nitrogen-cooled isopentane, or fixed in buffered formalin.
This was done on formalin-fixed, paraffin-embedded sections stained with Picro Sirius red, using image analysis. All samples from a series of experiments were stained simultaneously. Quantitative data were obtained using a computerized image analysis system (Biocom 500, Les Ulis, France) including a personal computer (DESK PRO, Compaq, Houston, Tex.), a CCD video camera (Sony, Japan) and a Zeiss microscope (Jena, Germany). Sampling corresponded to 3 sections from 3 different lobes. The analysis was performed on an average of 50 fields per section using the ×4 objective. The whole surface of the sections was used for analysis with the exception of large centrolobular veins (diameter ≧150 μm) and large portal tracts. Fibrosis deposition was expressed as a percentage of stained areas on the total measured area.
Interassay variation was calculated in preliminary experiments and found to be 1.4%. When the percentage of reduction in areas of fibrosis consecutive to treatments was calculated, control values were first substracted.

[2] = tested on: CCl4-induced hepatocyte necrosis; test: Acute toxicity of CCl4: liver function tests and area of necrosis; conditions: for effect on the acute toxicity of CCl4 (biological tests and necrosis area): co-treatment with CCl4 vs CCl4 alone
Protocol: Routine liver function blood tests (bilirubin, alkaline phosphatase and transaminases) were performed on an automated analyzer.
Thus, groups of animals treated with 2 administrations of CCl4 with or without 2 injections of OHDA were sacrificed 24 hours after the second CCl4 treatment and evaluated for acute toxicity of CCl4 by serum tests and measurement of the area of necrosis on liver sections.
The percentage of necrosis area was determined on hematoxylin and eosin stained sections by image analysis.

[3] = Vital parameters and liver function tests after 2 weeks of treatment; assay type: in vivo, rat; conditions: for Bilirubin / ALAT / ASAT / Alkaline phosphatase / LW/BW ratio (X100) / Liver weight / Body weight: 2 weeks; for Bilirubin / ALAT / ASAT / Alkaline phosphatase: serum
Protocol: as §1, §2, §3
Serum samples were also collected.

type I collagen mRNA = test: Liver type I collagen transcripts (quantitative RT-PCR, in situ hybridization); assay type: in vivo, rat
Protocol: In situ hybridization was performed on frozen sections according to a protocol described earlier, using [α^33P]UTP labeled riboprobes (Faouzi et al., 1999). The probe used was a 900 bp fragment of the rat α2(I) collagen cDNA, (Genovese et aL, 1984). The cDNA was subcloned into the pGEM5Z f(+) vector. Antisense and sense probes were generated by in vitro transcription. Their size was reduced to ˜250 nt by alkaline hydrolysis.
Total RNA was prepared from liver samples by the method of Chomczynski and Sacchi (1987), modified as described by Puissant and Houdebine (1990).
Type I collagen specific transcripts were quantified by a technique of quantitative RT-PCR, that has previously been described in detail (Bieche et al., 2000). Each sample was normalized on the basis of its expression of the RPLPO gene (also known as 36B4, encoding human acidic ribosomal phosphoprotein P0).

TIMP-1 mRNA [4] = test: Liver TIMP-1 mRNA by Northern blot (TIMP-1/GAPDH ratio); assay type: in vivo, rat
Protocol: […] The blot was then stripped and rehybridized with a rat GAPDH (glyceraldehyde-3-phosphate dehydrogenase) probe.
[…] of total RNA extracted from rat liver was analyzed by Northern blot. RNAs were separated on a 0.8% agarose gel containing ethidium bromide in MOPS buffer. Running buffer and gel contained 0.2 M formaldehyde. The RNAs were transferred onto a positively charged nylon membrane (Amersham, Orsay, France) by downward capillary transfer in running buffer. Examination of the stained membrane under UV light was used to confirm the quality of loading and transfer. A rat TIMP-1 cDNA probe was labeled with [α^32P]dCTP by random priming using the Ready-to-go kit from Roche (Meylan, France). Hybridization was performed using the Ultrahyb solution (Ambion, Austin, Tex.). The blots were washed in stringent conditions (0.1×SSC, 0.1% SDS at 65° C.). To further confirm the loading and transfer accuracy, blots were rehybridized with a rat GAPDH cDNA probe (Fort et al., 1985). The signals were quantified with the Kodak 1 D Image Analysis Software (Eastman Kodak Company, Rochester, N.Y.). Results are presented as TIMP-1/GAPDH ratios.

[5] = tested on: liver norepinephrin stores; test: Liver catecholamine (norepinephrin) content by HPLC with electrochemical detection; assay type: in vivo, rat; conditions: for Norepinephrin content in liver: 2 weeks, mean ± 1 SD; for decrease in the liver norepinephrin content: OHDA 2 weeks
Protocol: as §2, §3
Extraction was performed on liver homogenates (10% w/v, in 0.05 M ice-cold Tris-HCl buffer at pH 7.4) according to the method of Smedes et al. using […] as internal standard (Smedes et al., 1982). Extracts were analyzed by HPLC with electrochemical detection.

TIMP-1 mRNA [6] = test: TIMP-1 mRNA expression by cultured HSC-T6 cells (Northern blot); assay type: cell-based, rat; conditions: mean ±SEM
Protocol: (§4) The inventors used an established rat HSC cell line, named HSC-T6.
TIMP-1 increases fibrosis deposition by inhibiting its degradation by matrix metalloproteinases. The inventors observed in example 1 that noradrenergic antagonism in vivo led to a drastic decrease in liver TIMP-1 mRNA expression. They have further measured the effect of norepinephrin on TIMP-1 mRNA expression by cultured HSC-T6 cells. Total RNA was purified from cells exposed for 3, 6, or 24 hours to 100 nM norepinephrin. The RNAs were analyzed by Northern blot with a probe specific for rat TIMP-1. The blots were subsequently dehybridized and rehybridized with a probe to rat glyceraldehyde 3-phosphate dehydrogenase to ensure proper loading and transfer. TIMP-1/GADPH ratios were calculated and the results are shown respective to control values without norepinephrin.
Results are expressed as TIMP-1/GAPDH ratios relative to control values (mean ±SEM)

HSC-T6 = test: Hepatic stellate cell proliferation assay (tetrazolium dye reduction); assay type: cell-based, rat
Protocol: FIG. 3: Effect of norepinephrin on hepatic stellate cell (HSC) proliferation. Cells were exposed to increasing concentrations of norepinephrin for 2 days. Cell number was evaluated through the measurement of the reduction of the dye 3-(4,5-dimethylthiazol-2yl)-2,5 diphenyltetrazolium.
FIG. 4: Effect of prazosin on hepatic stellate cell proliferation induced by norepinephrin Cells were exposed to increasing concentrations of prazosin, either alone (open symbols), or in the presence of 100 nM norepinephrin (closed symbols). Cell number was evaluated through the measurement of the reduction of the dye 3-(4,5-dimethylthiazol-2yl)-2,5 diphenyltetrazolium. The marginal proliferation index was calculated as: (ODexperimental sample—ODday 0)/(ODcontrol—ODday 0), where OD is the optical density measured at the end of the experiment.
as §4
Cells were exposed to increasing concentrations of norepinephrin for 2 days. In some experiments, cells were also exposed to increasing concentrations of prazosin. Cell number was evaluated through the measurement of the reduction of the dye 3-(4,5-dimethylthiazol-2yl)-2,5 diphenyltetrazolium.

## NCCc1cc(O)c(O)cc1O [OHDA, 6-hydroxydopamine]
[1]; CCl4 with OHDA (group IV), 2 weeks, CCl4 alone 2.86±0.78%
  area of fibrosis (% of field area): 1.54±0.29%
[1]; CCl4 with OHDA, 6 weeks, CCl4 alone 18.82±1.79%
  area of fibrosis: 12.38±1.89%
[1]; OHDA alone (group II), 2 weeks
  area of fibrosis (% of field area): 0.61±0.08%
[1]; OHDA alone, 6 weeks
  area of fibrosis: 0.47±0.03%
[1]; OHDA with CCl4 vs CCl4 alone, 2 weeks, control values subtracted
  reduction in the area of fibrosis: 60% and 60.2%
[1]; OHDA with CCl4 vs CCl4 alone, 6 weeks
  decrease of fibrosis area: 36%
[2]; CCl4 + OHDA, 96 hs, hematoxylin and eosin sections, CCl4 alone 4.6 ± 2.3
  Necrosis area: 3.3 ± 1.0%
[2]; CCl4 + OHDA, 96 hs, CCl4 alone 269 ± 117
  ALAT: 221 ± 71 IU.I^−1
[2]; CCl4 + OHDA, 96 hs, CCl4 alone 314 ± 111
  Alkaline phosphatase: 240 ± 117 IU.I^−1
[2]; CCl4 + OHDA, 96 hs, CCl4 alone 452 ± 152
  ASAT: 342 ± 62 IU.I^−1
[2]
  effect on the acute toxicity of CCl4 (biological tests and necrosis area): no statistically significant difference
[3]; CCl4 with OHDA (group IV), CCl4 alone 3.2 ± 0.7
  Bilirubin: 5.0 ± 1.4 μM.I^−1
[3]; CCl4 with OHDA (group IV), CCl4 alone 130 ± 98
  ALAT: 97 ± 37 IU.I^−1
[3]; CCl4 with OHDA (group IV), CCl4 alone 173 ± 82
  ASAT: 137 ± 29 IU.I^−1
[3]; CCl4 with OHDA (group IV), CCl4 alone 276 ± 53
  Alkaline phosphatase: 225 ± 58 IU.I^−1
[3]; CCl4 with OHDA (group IV), CCl4 alone 4.6 ± 0.7
  LW/BW ratio (X100): 4.1 ± 0.6
[3]; CCl4 with OHDA (group IV), CCl4 alone 13.7 ± 1.7
  Liver weight: 12.5 ± 1.0 g
[3]; CCl4 with OHDA (group IV), CCl4 alone 298 ± 12
  Body weight: 293 ± 6 g
[3]; OHDA alone (group II)
  gross toxic effects of prolonged treatment: No gross toxic effects
  histologic aspect of the livers: strictly normal
[3]; OHDA alone (group II), saline 4.5 ± 1.4
  Bilirubin: 2.3 ± 0.5 μM.I^−1
[3]; OHDA alone (group II), saline 43 ± 4
  ALAT: 50 ± 6 IU.I^−1
[3]; OHDA alone (group II), saline 120 ± 9
  ASAT: 94 ± 18 IU.I^−1
[3]; OHDA alone (group II), saline 178 ± 48
  Alkaline phosphatase: 274 ± 46 IU.I^−1
[3]; OHDA alone (group II), saline 3.7 ± 0.2
  LW/BW ratio (X100): 4.4 ± 0.2
[3]; OHDA alone (group II), saline 12.9 ± 1.0
  Liver weight: 16.0 ± 1.1 g
[3]; OHDA alone (group II), saline 344 ± 17
  Body weight: 365 ± 14 g
Type I collagen mRNA; CCl4 together with OHDA, 6 weeks, CCl4 alone 477.2±91.0, control 16.0±5.9
  type I collagen mRNA level (quantitative RT-PCR): 364.5±68.7 arbitrary units
Type I collagen mRNA; CCl4 with OHDA vs CCl4 only, 6 weeks
  decrease in type I collagen mRNA level: 24%
TIMP-1 mRNA [4]; CCl4 with OHDA (group IV), 2 weeks
  effect on CCl4-induced increase of liver TIMP-1 mRNA (TIMP-1/GAPDH ratio): abrogated; also recorded: normalization of the TIMP-1/GAPDH ratio back to control values
TIMP-1 mRNA [4]; CCl4 with OHDA, 6 weeks
  effect on CCl4-induced increase of liver TIMP-1 mRNA: greatly reduced
TIMP-1 mRNA [4]; CCl4 with OHDA, 6 weeks, all animals, not statistically significant
  reduction in the TIMP-1/GAPDH ratio: 45%
TIMP-1 mRNA [4]; CCl4 with OHDA, 6 weeks, one animal with very high value removed, p=0.05
  reduction in the TIMP-1/GAPDH ratio: 57%
[5]; CCl4 + OHDA (group IV), CCl4 alone group III 29.1 ± 10.6
  Norepinephrin content in liver: 3.6 ± 1.5 ng/g of wet liver tissue
[5]; CCl4-treated animals
  decrease in the liver norepinephrin content: 87.6%
[5]; OHDA alone (group II), 25 mg/kg i.p. twice a week, saline group I 47.6 ± 9.9
  Norepinephrin content in liver: 6.0 ± 3.2 ng/g of wet liver tissue
[5]; non CCl4-treated animals
  decrease in the liver norepinephrin content: 87.4%

## NC[C@H](O)c1ccc(O)c(O)c1 [norepinephrin]
TIMP-1 mRNA [6]; Norepinephrin 100 nM, 3 h
  TIMP-1/GAPDH ratio relative to control: 1,30 ± 0,15
TIMP-1 mRNA [6]; Norepinephrin 100 nM, 6 h
  TIMP-1/GAPDH ratio relative to control: 1,38 ± 0,13
TIMP-1 mRNA [6]; Norepinephrin 100 nM, 24 h
  TIMP-1/GAPDH ratio relative to control: 1,15 ± 0,18
HSC-T6; 2 days exposure
  concentration at plateau of HSC-T6 proliferation increase: 100 nM
HSC-T6; Rattus norvegicus, HSC-T6, 48 h, 2 days exposure, mean of 5 independent experiments in triplicate, read-out: Half-maximal effect on HSC-T6 proliferation
  EC50: 25 nM

## COc1cc2nc(N3CCN(C(=O)c4ccco4)CC3)nc(N)c2cc1OC [prazosin, 1-(4-amino-6,7-dimethoxy-2-quinazolinyl)-4-(2-furanylcarbonyl) piperazine]
[1]; CCl4 with prazosin 50 mg/l in drinking water (group VI), 2 weeks, CCl4 alone 2.35±0.41%
  fibrosis area (histomorphometry): 0.89±0.21%
[1]; prazosin with CCl4 vs CCl4 alone, 2 weeks
  decrease in fibrosis area: 83%
HSC-T6; in the presence of 100 nM norepinephrin, 3 independent experiments in quadruplicate
  effect on mitogenic effect of norepinephrin on HSC-T6: abolished
HSC-T6; without norepinephrin
  effect on HSC-T6 proliferation alone: no effect
[2]
  effect on the acute toxicity of CCl4 (biological tests and necrosis area): did not decrease
Type I collagen mRNA; CCl4 with prazosin, 2 weeks
  type I collagen transcripts by in situ hybridization: large decrease in transcripts

## TGFβ1: transforming growth factor β1, a major agonist of liver fibrogenesis
TIMP-1 mRNA [6]; TGFβ1 0,1 ng/ml, 3 h
  TIMP-1/GAPDH ratio relative to control: 1,56 ± 0,20
TIMP-1 mRNA [6]; TGFβ1 0,1 ng/ml, 6 h
  TIMP-1/GAPDH ratio relative to control: 1,38 ± 0,11
TIMP-1 mRNA [6]; TGFβ1 0,1 ng/ml, 24 h
  TIMP-1/GAPDH ratio relative to control: 1,33 ± 0,09
